ChEMBL document CHEMBL1201862, “PubChem BioAssay data set” (2004)
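Cells were grown in 96-well plates and exposed to each compound for 48 hours at five concentrations; endpoints were interpolated linearly between bracketing concentrations, or set to the highest concentration if not reached. GI50 = concentration required for 50% inhibition of growth.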 Active and inactive are the calls of the source. Cut-off read from the data, not from the text of the source: active = GI50 up to about 1.1 µM and inactive = higher.

Columns and labels:
Test in all cases: NCI tumour cell line growth inhibition, 48 h
A549 = tested on: A549
Malme-3M = tested on: Malme-3M
HCC 2998 = tested on: HCC 2998
RXF 393 = tested on: RXF 393
U-251 = tested on: U-251
MDA-MB-231 = tested on: MDA-MB-231
IGROV-1 = tested on: IGROV-1
NCI-H460 = tested on: NCI-H460
NCI-H23 = tested on: NCI-H23
CAKI-1 = tested on: CAKI-1
SNB-75 = tested on: SNB-75
CCRF-CEM = tested on: CCRF-CEM
SF-268 = tested on: SF-268
M14 = tested on: M14
SW-620 = tested on: SW-620
HCT-116 = tested on: HCT-116
MOLT-4 = tested on: MOLT-4
SR = tested on: SR
786-0 = tested on: 786-0
SK-MEL-28 = tested on: SK-MEL-28
MDA-N = tested on: MDA-N
TK-10 = tested on: TK-10
NCI-H226 = tested on: NCI-H226
OVCAR-4 = tested on: OVCAR-4
MDA-MB-435 = tested on: MDA-MB-435
OVCAR-3 = tested on: OVCAR-3
Hs-578T = tested on: Hs-578T
HOP-62 = tested on: HOP-62
SF-539 = tested on: SF-539
MCF7 = tested on: MCF7
UACC-257 = tested on: UACC-257
HOP-92 = tested on: HOP-92
SK-OV-3 = tested on: SK-OV-3
OVCAR-8 = tested on: OVCAR-8
HT-29 = tested on: HT-29
NCI/ADR-RES = tested on: NCI/ADR-RES
SK-MEL-2 = tested on: SK-MEL-2
DU-145 = tested on: DU-145
COLO 205 = tested on: COLO 205
SF-295 = tested on: SF-295
T47D = tested on: T47D
UACC-62 = tested on: UACC-62
ACHN = tested on: ACHN
NCI-H522 = tested on: NCI-H522
HL-60 = tested on: HL-60
PC-3 = tested on: PC-3
SNB-19 = tested on: SNB-19
SK-MEL-5 = tested on: SK-MEL-5
LOX IMVI = tested on: LOX IMVI
A498 = tested on: A498
KM12 = tested on: KM12
UO-31 = tested on: UO-31
K562 = tested on: K562
EKVX = tested on: EKVX
HCT-15 = tested on: HCT-15
SN12C = tested on: SN12C
OVCAR-5 = tested on: OVCAR-5
RPMI-8226 = tested on: RPMI-8226
BT-549 = tested on: BT-549

SMILES: O=C1C=CC(=O)C(CNc2ccc(C(=O)OC34CC5CC(CC(C5)C3)C4)cc2)=C1
- GI50 (A549): 16.1 µM (inactive)
- GI50 (Malme-3M): 4.58 µM (inactive)
- GI50 (HCC 2998): 15 µM (inactive)
- GI50 (RXF 393): 1.71 µM (inactive)
- GI50 (U-251): 4.06 µM (inactive)
- GI50 (MDA-MB-231): 14 µM (inactive)
- GI50 (IGROV-1): 1.54 µM (inactive)
- GI50 (NCI-H460): 15.2 µM (inactive)
- GI50 (NCI-H23): 6.67 µM (inactive)
- GI50 (CAKI-1): 0.753 µM (active)
- GI50 (SNB-75): 3.39 µM (inactive)
- GI50 (CCRF-CEM): 1.34 µM (inactive)
- GI50 (SF-268): 11.9 µM (inactive)
- GI50 (M14): 12.6 µM (inactive)
- GI50 (SW-620): 10.5 µM (inactive)
- GI50 (HCT-116): 10 µM (inactive)
- GI50 (MOLT-4): 1.51 µM (inactive)
- GI50 (SR): 3.81 µM (inactive)
- GI50 (786-0): 10.3 µM (inactive)
- GI50 (SK-MEL-28): 4.69 µM (inactive)
- GI50 (MDA-N): 4.73 µM (inactive)
- GI50 (TK-10): 11.5 µM (inactive)
- GI50 (NCI-H226): 2 µM (inactive)
- GI50 (OVCAR-4): 3.01 µM (inactive)
- GI50 (MDA-MB-435): 5.93 µM (inactive)
- GI50 (OVCAR-3): 3.06 µM (inactive)
- GI50 (Hs-578T): 2.38 µM (inactive)
- GI50 (HOP-62): 11.4 µM (inactive)
- GI50 (SF-539): 2.49 µM (inactive)
- GI50 (MCF7): 3.43 µM (inactive)
- GI50 (UACC-257): 6.04 µM (inactive)
- GI50 (HOP-92): 3.28 µM (inactive)
- GI50 (SK-OV-3): 20 µM (inactive)
- GI50 (OVCAR-8): 5.11 µM (inactive)
- GI50 (HT-29): 9.44 µM (inactive)
- GI50 (NCI/ADR-RES): 3.44 µM (inactive)
- GI50 (SK-MEL-2): 15.1 µM (inactive)
- GI50 (DU-145): 19.4 µM (inactive)
- GI50 (COLO 205): 2.04 µM (inactive)
- GI50 (SF-295): 16.6 µM (inactive)
- GI50 (T47D): 2.49 µM (inactive)
- GI50 (UACC-62): 5.14 µM (inactive)
- GI50 (ACHN): 6.28 µM (inactive)
- GI50 (NCI-H522): 0.776 µM (active)
- GI50 (HL-60): 1.53 µM (inactive)
- GI50 (PC-3): 6.07 µM (inactive)
- GI50 (SNB-19): 12.8 µM (inactive)
- GI50 (SK-MEL-5): 4.38 µM (inactive)
- GI50 (LOX IMVI): 4.57 µM (inactive)
- GI50 (A498): 11.7 µM (inactive)
- GI50 (KM12): 5.94 µM (inactive)
- GI50 (UO-31): 4.24 µM (inactive)
- GI50 (K562): 4.52 µM (inactive)
- GI50 (EKVX): 6.53 µM (inactive)
- GI50 (HCT-15): 2.44 µM
- GI50 (SN12C): 11.3 µM (inactive)
- GI50 (OVCAR-5): 15.1 µM (inactive)
- GI50 (RPMI-8226): 1.93 µM (inactive)
- GI50 (BT-549): 5.12 µM (inactive)

SMILES: O=C1c2ccccc2C(=O)c2oc(Br)cc21
- GI50 (A549): 0.344 µM (active)
- GI50 (Malme-3M): 0.127 µM (active)
- GI50 (HCC 2998): 1.82 µM (inactive)
- GI50 (RXF 393): 1.49 µM (inactive)
- GI50 (U-251): 1.26 µM (inactive)
- GI50 (MDA-MB-231): 2.65 µM (inactive)
- GI50 (IGROV-1): 1.24 µM (inactive)
- GI50 (NCI-H460): 0.845 µM (active)
- GI50 (NCI-H23): 0.244 µM (active)
- GI50 (CAKI-1): 1.76 µM (inactive)
- GI50 (SNB-75): 0.256 µM (active)
- GI50 (CCRF-CEM): 1.95 µM (inactive)
- GI50 (SF-268): 1.87 µM (inactive)
- GI50 (M14): 0.161 µM (active)
- GI50 (SW-620): 0.34 µM (active)
- GI50 (HCT-116): 1.36 µM (inactive)
- GI50 (MOLT-4): 1.8 µM (inactive)
- GI50 (SR): 1.09 µM (active)
- GI50 (786-0): 1.57 µM (inactive)
- GI50 (SK-MEL-28): 0.34 µM (active)
- GI50 (MDA-N): 0.132 µM (active)
- GI50 (TK-10): 2.9 µM (inactive)
- GI50 (NCI-H226): 1.41 µM (inactive)
- GI50 (OVCAR-4): 1.87 µM (inactive)
- GI50 (MDA-MB-435): 0.159 µM (active)
- GI50 (OVCAR-3): 1.02 µM (active)
- GI50 (Hs-578T): 0.327 µM (active)
- GI50 (HOP-62): 1.69 µM (inactive)
- GI50 (SF-539): 0.684 µM (active)
- GI50 (MCF7): 0.46 µM (active)
- GI50 (UACC-257): 0.266 µM (active)
- GI50 (HOP-92): 2.02 µM (inactive)
- GI50 (SK-OV-3): 2.14 µM (inactive)
- GI50 (OVCAR-8): 1.38 µM (inactive)
- GI50 (HT-29): 1.6 µM (inactive)
- GI50 (NCI/ADR-RES): 2.22 µM (inactive)
- GI50 (SK-MEL-2): 0.578 µM (active)
- GI50 (DU-145): 0.214 µM (active)
- GI50 (COLO 205): 1.92 µM (inactive)
- GI50 (SF-295): 0.269 µM (active)
- GI50 (T47D): 1.73 µM (inactive)
- GI50 (UACC-62): 0.544 µM (active)
- GI50 (ACHN): 1.78 µM (inactive)
- GI50 (NCI-H522): 1.55 µM (inactive)
- GI50 (HL-60): 0.378 µM (active)
- GI50 (PC-3): 2.26 µM (inactive)
- GI50 (SNB-19): 1.5 µM (inactive)
- GI50 (SK-MEL-5): 0.144 µM (active)
- GI50 (LOX IMVI): 0.429 µM (active)
- GI50 (A498): 1.94 µM (inactive)
- GI50 (KM12): 1.23 µM (inactive)
- GI50 (UO-31): 1.47 µM (inactive)
- GI50 (K562): 2.12 µM (inactive)
- GI50 (EKVX): 1.94 µM (inactive)
- GI50 (HCT-15): 0.566 µM
- GI50 (SN12C): 0.953 µM (active)
- GI50 (OVCAR-5): 1.67 µM (inactive)
- GI50 (RPMI-8226): 1.75 µM (inactive)
- GI50 (BT-549): 1.16 µM (inactive)
